PMC12827894, “Structure-guided design of picomolar-level macrocyclic TRPC5 channel inhibitors with antidepressant activity” (Acta Pharmaceutica Sinica. B, 2025)

Assays:
TRPC5 = molecular target: T1, TRPC5 (Homo sapiens, UniProt Q9UL62); assay type: cell-based; conditions: 100 nmol/L EA; read-out: IC50, TRPC5, whole-cell patch-clamp
T1 sequence (Q9UL62 1-973): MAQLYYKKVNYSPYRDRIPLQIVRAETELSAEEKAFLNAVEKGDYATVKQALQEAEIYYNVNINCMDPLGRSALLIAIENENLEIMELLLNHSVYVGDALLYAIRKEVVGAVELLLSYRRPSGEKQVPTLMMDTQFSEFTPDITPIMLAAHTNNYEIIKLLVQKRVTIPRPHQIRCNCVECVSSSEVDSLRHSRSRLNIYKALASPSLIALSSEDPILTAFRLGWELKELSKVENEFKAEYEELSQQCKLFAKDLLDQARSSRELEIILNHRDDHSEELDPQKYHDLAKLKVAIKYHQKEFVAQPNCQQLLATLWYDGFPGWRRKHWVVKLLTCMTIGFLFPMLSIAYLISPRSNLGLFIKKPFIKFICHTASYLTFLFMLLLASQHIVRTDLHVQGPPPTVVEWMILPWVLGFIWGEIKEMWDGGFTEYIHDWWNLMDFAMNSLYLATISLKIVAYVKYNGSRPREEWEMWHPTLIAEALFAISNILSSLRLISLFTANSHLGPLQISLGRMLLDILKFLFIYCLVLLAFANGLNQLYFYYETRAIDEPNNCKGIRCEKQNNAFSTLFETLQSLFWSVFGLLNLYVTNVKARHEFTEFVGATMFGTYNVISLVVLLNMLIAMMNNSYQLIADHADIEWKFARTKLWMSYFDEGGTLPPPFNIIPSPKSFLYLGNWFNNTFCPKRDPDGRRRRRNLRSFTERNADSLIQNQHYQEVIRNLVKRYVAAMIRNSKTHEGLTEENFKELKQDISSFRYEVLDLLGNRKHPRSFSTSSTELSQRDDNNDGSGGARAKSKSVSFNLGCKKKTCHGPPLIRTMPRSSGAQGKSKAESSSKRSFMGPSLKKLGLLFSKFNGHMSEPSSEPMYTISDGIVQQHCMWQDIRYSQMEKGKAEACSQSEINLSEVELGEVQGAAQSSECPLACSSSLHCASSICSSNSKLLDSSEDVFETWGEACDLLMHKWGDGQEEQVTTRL

TRPV1 = TRPV1 (Homo sapiens, UniProt Q8NER1); experiment: Patch-clamp selectivity, TRPV1; assay type: cell-based; conditions: 10 μmol/L
C57BL/6J mice = experiment: m-CPP-induced anxiety model, marble burying test; assay type: in vivo; conditions: p.o.
5-HT1B = molecular target: T2, 5-HT1B (Homo sapiens, UniProt P28222); experiment: cell-based; conditions: 10 μmol/L
T2 construct: purchased ICE Bioscience ICESTP SafetyOne44 Panel

5-HT2A = molecular target: T3, 5-HT2A (Homo sapiens, UniProt P28223); experiment: cell-based; assay type: cell-based
T3 construct: purchased ICE Bioscience ICESTP SafetyOne44 Panel

5-HT2B = molecular target: T4, 5-HT2B (Homo sapiens, UniProt P41595); experiment: cell-based; assay type: cell-based; conditions: 5-HT2B, 10 μmol/L
T4 construct: purchased ICE Bioscience ICESTP SafetyOne44 Panel

α1A = α1A (Homo sapiens, UniProt P35348); experiment: cell-based; assay type: cell-based
α2A = molecular target: T5, α2A (Homo sapiens, UniProt P08913); experiment: cell-based; assay type: cell-based
T5 construct: purchased ICE Bioscience ICESTP SafetyOne44 Panel

β2 = molecular target: T6, β2 (Homo sapiens, UniProt P07550); experiment: SafetyOne44 panel: β2; assay type: cell-based
T6 construct: purchased ICE Bioscience ICESTP™ SafetyOne44 Panel

CB1 = molecular target: T7, CB1 (Homo sapiens, UniProt P21554); experiment: cell-based; assay type: cell-based
T7 construct: purchased ICE Bioscience ICESTP™ SafetyOne44 Panel

CB2 = molecular target: T8, CB2 (Homo sapiens, UniProt P34972); experiment: cell-based; assay type: cell-based
T8 construct: purchased ICE Bioscience ICESTP™ SafetyOne44 Panel

ETA = molecular target: T9, ETA (Homo sapiens, UniProt P25101); experiment: SafetyOne44 panel: ETA; assay type: cell-based; conditions: ETA, 10 μmol/L
T9 construct: purchased ICE Bioscience ICESTP™ SafetyOne44 Panel
T9 sequence (P25101 21-427): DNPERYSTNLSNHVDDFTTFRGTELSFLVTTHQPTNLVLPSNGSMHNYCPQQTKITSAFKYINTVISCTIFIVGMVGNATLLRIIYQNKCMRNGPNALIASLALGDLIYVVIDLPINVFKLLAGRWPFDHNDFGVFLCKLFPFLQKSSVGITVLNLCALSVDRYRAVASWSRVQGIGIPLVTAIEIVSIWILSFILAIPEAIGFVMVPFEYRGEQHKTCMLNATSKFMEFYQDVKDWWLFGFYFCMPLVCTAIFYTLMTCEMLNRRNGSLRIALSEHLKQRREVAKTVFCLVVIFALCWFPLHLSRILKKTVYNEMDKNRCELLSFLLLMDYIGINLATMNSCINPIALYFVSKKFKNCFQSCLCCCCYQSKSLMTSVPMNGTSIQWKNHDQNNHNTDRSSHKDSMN

H2 = molecular target: T10, H2 (Homo sapiens, UniProt P25021); experiment: SafetyOne44 panel: H2; assay type: cell-based; conditions: 10 μmol/L
T10 construct: purchased ICE Bioscience ICESTP™ SafetyOne44 Panel

PDE3 A = molecular target: T11, PDE3 A (Homo sapiens, UniProt Q14432); experiment: SafetyOne44 panel: PDE3A; assay type: biochemical; conditions: 10 μmol/L, read-out: Antagonist JDIC-127 @10 μmol/L
T11 construct: purchased ICE Bioscience ICESTP™ SafetyOne44 Panel

DAT = molecular target: T12, DAT (Homo sapiens, UniProt Q01959); experiment: SafetyOne44 panel: DAT; assay type: cell-based; conditions: 10 μmol/L, read-out: Antagonist JDIC-127 @10 μmol/L
T12 construct: purchased ICE Bioscience ICESTP™ SafetyOne44 Panel

NET = molecular target: T13, NET (Homo sapiens, UniProt P23975); experiment: SafetyOne44 panel: NET; assay type: cell-based; conditions: NET, 10 μmol/L; read-out: Antagonist JDIC-127 @10 μmol/L
T13 construct: ICE Bioscience ICESTP SafetyOne44 Panel

Nav1.5 = molecular target: T14, Nav1.5 (Homo sapiens, UniProt Q14524); experiment: SafetyOne44 panel ion channels: Nav1.5; assay type: cell-based; conditions: Nav1.5, 5 μmol/L
T14 construct: ICE Bioscience ICESTP SafetyOne44 Panel

V1a = V1a (Homo sapiens, UniProt P37288); experiment: cell-based; conditions: read-out: Antagonist JDIC-127 @10 μmol/L
COX2 = COX2 (Homo sapiens, UniProt P35354); experiment: biochemical; conditions: read-out: Antagonist JDIC-127 @10 μmol/L
[1] = antagonist mode, read-out: Antagonist JDIC-127 @10 μmol/L
[2] = antagonist mode, 10 μmol/L, read-out: Antagonist JDIC-127 @10 μmol/L

T10 sequence (P25021 whole entry): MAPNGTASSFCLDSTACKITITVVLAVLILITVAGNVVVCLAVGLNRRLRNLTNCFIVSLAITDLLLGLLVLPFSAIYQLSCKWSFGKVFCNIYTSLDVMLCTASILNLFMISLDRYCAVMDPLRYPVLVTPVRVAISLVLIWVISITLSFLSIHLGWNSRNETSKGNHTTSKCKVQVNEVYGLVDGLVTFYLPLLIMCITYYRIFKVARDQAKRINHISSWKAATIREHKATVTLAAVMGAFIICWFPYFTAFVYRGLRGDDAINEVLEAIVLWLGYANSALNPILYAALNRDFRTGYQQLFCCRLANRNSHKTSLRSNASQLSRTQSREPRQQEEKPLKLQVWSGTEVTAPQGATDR
T7 sequence (P21554 whole entry): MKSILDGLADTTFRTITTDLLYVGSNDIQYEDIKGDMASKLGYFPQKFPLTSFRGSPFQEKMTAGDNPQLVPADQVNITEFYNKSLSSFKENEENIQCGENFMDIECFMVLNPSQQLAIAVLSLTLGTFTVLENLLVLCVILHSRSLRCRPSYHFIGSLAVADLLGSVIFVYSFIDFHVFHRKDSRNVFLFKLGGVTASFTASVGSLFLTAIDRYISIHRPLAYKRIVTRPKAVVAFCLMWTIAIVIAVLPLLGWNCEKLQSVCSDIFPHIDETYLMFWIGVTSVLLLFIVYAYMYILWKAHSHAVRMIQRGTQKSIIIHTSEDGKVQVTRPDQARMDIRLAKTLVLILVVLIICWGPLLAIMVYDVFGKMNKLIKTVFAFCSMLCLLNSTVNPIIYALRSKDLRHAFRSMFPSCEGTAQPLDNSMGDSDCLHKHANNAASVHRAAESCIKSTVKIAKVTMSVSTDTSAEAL
T8 sequence (P34972 whole entry): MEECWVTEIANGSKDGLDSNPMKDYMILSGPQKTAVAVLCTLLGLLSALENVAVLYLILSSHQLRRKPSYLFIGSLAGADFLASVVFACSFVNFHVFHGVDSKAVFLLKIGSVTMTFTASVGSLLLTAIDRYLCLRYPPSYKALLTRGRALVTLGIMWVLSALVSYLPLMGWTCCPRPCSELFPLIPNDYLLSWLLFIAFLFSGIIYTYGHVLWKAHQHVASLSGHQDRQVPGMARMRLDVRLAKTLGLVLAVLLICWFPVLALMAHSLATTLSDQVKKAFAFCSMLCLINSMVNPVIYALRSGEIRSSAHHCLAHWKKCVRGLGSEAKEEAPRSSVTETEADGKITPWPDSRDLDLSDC
T5 sequence (P08913 whole entry): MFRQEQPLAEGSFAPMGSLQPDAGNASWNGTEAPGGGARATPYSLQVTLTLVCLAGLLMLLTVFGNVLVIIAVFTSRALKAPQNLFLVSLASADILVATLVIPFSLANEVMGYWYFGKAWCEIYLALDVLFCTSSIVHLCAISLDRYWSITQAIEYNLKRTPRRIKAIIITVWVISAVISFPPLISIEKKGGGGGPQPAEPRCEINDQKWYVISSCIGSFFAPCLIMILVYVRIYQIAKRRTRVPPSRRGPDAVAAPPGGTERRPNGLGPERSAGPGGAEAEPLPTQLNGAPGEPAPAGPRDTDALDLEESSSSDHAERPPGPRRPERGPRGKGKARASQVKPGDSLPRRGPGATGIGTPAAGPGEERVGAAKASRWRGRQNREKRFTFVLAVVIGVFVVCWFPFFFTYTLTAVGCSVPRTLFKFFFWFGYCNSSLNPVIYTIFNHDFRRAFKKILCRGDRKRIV
T6 sequence (P07550 whole entry): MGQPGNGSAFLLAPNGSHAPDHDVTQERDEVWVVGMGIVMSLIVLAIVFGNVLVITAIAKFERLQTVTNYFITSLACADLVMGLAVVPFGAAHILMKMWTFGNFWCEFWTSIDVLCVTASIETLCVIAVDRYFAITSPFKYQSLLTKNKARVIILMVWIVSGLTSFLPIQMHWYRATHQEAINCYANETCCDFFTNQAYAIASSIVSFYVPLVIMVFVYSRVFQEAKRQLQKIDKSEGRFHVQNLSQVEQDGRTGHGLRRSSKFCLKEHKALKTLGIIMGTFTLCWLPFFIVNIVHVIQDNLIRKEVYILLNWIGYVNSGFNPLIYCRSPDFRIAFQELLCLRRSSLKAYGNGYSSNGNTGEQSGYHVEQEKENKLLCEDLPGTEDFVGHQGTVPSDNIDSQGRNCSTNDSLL
T2 sequence (P28222 whole entry): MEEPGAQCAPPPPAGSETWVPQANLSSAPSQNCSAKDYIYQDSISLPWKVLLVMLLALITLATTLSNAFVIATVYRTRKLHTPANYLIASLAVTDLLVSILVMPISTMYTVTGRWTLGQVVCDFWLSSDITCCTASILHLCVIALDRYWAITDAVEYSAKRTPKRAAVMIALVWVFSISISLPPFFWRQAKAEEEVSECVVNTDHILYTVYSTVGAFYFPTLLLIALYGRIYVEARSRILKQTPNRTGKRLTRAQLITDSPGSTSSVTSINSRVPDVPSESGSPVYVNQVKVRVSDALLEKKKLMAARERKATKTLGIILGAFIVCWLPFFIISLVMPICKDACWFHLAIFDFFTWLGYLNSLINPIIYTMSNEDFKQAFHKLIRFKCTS
T4 sequence (P41595 whole entry): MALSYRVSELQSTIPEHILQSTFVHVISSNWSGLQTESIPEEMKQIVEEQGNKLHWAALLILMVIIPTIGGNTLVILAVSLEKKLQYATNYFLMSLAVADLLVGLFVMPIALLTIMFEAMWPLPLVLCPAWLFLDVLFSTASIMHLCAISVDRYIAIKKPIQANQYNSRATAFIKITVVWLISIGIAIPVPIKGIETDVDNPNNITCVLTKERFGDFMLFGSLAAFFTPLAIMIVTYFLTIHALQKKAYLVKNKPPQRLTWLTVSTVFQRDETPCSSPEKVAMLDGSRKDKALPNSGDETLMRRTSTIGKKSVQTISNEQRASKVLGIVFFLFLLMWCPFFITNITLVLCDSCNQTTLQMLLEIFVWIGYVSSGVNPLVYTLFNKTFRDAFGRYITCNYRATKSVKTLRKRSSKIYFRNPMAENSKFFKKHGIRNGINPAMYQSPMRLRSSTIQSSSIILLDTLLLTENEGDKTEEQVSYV
α1A, sequence (P35348 whole entry): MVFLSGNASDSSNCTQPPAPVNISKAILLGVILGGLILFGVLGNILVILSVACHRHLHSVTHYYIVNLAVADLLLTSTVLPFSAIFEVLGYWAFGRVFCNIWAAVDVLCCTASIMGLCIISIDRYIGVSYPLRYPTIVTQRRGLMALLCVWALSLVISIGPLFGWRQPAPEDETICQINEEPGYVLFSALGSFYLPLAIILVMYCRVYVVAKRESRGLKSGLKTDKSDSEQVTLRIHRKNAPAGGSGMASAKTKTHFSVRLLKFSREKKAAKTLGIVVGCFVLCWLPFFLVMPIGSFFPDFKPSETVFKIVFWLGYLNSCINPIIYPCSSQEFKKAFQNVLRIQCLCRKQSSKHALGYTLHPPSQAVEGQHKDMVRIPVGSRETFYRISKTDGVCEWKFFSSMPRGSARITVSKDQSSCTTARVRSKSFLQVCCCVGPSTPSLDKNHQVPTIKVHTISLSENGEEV
T3 sequence (P28223 whole entry): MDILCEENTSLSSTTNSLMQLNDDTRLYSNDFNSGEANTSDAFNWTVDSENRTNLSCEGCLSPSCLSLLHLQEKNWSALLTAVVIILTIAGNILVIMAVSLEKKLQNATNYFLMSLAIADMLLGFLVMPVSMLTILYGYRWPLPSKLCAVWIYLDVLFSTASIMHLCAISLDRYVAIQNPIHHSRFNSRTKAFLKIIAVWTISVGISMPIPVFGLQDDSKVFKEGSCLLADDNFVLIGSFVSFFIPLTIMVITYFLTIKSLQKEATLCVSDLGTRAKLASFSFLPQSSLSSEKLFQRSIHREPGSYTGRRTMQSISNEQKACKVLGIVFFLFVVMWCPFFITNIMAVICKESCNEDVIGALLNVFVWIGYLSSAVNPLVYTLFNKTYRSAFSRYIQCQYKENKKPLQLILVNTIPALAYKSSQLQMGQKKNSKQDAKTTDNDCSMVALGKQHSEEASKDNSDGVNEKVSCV
T12 sequence (Q01959 whole entry): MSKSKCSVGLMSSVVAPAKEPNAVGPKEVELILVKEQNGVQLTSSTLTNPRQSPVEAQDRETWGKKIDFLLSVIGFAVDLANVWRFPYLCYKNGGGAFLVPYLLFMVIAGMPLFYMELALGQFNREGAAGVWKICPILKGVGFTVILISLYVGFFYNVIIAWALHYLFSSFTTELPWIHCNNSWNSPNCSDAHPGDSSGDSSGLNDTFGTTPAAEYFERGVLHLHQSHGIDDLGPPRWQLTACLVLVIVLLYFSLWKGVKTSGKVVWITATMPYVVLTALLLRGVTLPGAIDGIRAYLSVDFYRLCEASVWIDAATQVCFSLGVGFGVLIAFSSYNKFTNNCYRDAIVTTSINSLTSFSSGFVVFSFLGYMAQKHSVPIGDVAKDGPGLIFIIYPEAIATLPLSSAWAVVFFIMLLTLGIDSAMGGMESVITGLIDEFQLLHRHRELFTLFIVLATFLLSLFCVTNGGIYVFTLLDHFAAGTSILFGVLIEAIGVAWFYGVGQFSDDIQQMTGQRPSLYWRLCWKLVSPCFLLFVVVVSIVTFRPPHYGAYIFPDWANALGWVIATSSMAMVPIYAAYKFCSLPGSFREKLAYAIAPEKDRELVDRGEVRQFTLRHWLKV
V1a, sequence (P37288 whole entry): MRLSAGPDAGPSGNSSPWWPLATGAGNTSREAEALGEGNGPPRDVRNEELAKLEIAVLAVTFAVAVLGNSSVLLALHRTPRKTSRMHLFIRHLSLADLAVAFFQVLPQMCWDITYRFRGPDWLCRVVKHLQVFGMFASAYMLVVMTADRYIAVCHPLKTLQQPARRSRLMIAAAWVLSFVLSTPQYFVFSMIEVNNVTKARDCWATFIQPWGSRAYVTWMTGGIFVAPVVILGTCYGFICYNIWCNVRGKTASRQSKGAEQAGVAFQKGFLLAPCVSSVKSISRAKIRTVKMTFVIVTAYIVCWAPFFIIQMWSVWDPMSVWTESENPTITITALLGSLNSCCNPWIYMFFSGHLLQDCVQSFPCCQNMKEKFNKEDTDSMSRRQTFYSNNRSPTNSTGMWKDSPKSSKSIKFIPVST

O=c1c2c3nc(n2Cc2ccc(Cl)cc2)Oc2ccc(F)c(c2)OCCCCCCn3c(=O)n1CCCO [JDIC-127]
IC50 (TRPC5): 0.374 nM | inhibition at 10 µM (TRPV1): < 33% | number of buried marbles, MBT (C57BL/6J mice): reduced | Agonist JDIC-127 @10 μmol/L (5-HT1B; agonist mode): 10.95% | inhibition at 10 µM (5-HT1B; [1]): -14.7% | Agonist JDIC-127 @10 μmol/L (5-HT2A; agonist mode): 3.92% | inhibition at 10 µM (5-HT2A; [2]): 5.24% | Agonist JDIC-127 @10 μmol/L (5-HT2B; agonist mode): 0.67% | inhibition at 10 µM (5-HT2B; [1]): -0.45% | Agonist JDIC-127 @10 μmol/L (α1A; agonist mode): 0.76% | inhibition at 10 µM (α1A; [2]): -3.05% | Agonist JDIC-127 @10 μmol/L (α2A; agonist mode): –1.14% | inhibition at 10 µM (α2A; [2]): -8.62% | Agonist JDIC-127 @10 μmol/L (β2; β2, agonist mode): –1.53% | inhibition at 10 µM (β2; β2, antagonist mode, 10 μmol/L, read-out: Antagonist JDIC-127 @10 μmol/L): 19.6% | Agonist JDIC-127 @10 μmol/L (CB1; CB1, agonist mode): 33.32% | inhibition at 10 µM (CB1; CB1, antagonist mode, 10 μmol/L, read-out: Antagonist JDIC-127 @10 μmol/L): -9.83% | Agonist JDIC-127 @10 μmol/L (CB2; CB2, agonist mode): 26.01% | inhibition at 10 µM (CB2; CB2, antagonist mode, 10 μmol/L, read-out: Antagonist JDIC-127 @10 μmol/L): -0.84% | Agonist JDIC-127 @10 μmol/L (ETA; agonist mode): 1.45% | inhibition at 10 µM (ETA; [1]): 2.63% | Agonist JDIC-127 @10 μmol/L (H2; H2, agonist mode): –6.71% | inhibition at 10 µM (H2; H2, antagonist mode, read-out: Antagonist JDIC-127 @10 μmol/L): 5.6% | inhibition at 10 µM (PDE3 A): 2.27% | inhibition at 10 µM (DAT): -57.6% | inhibition at 10 µM (NET): -5.84% | Antagonist JDIC-127 @5 μmol/L (Nav1.5): 2.98% | inhibition at 10 µM (V1a): -0.83% | inhibition at 10 µM (COX2): 1.38%
